Measured values from paper PMC7667029, “A Targeted Computational Screen of the SWEETLEAD Database Reveals FDA-Approved Compounds with Anti-Dengue Viral Activity” (mBio, 2020).
pIC50: −log10 of the molar value. “Also recorded” adds a separate entry of the source. Read-outs that look alike come from different tables or passages of the source.

Key:
DENV2 [1] = experiment: Antiviral activity in DENV2-infected Huh7 cells, infectious virus in supernatant by plaque assay; type: cell-based, dengue virus; conditions: Dengue virus
Protocol: FIG 2 Pyrimethamine inhibits dengue virus and NS2B/3 proteinase cleavage like ARDP0006. (A) Chemical structures and (B) ROCS overlay of ARDP0006 and pyrimethamine. […] Infectious virus in cell supernatant was quantified by plaque assay at 24 hpi (left y axis, black or red). Cell viability was measured at the same pyrimethamine doses 24 h posttreatment by WST-1 assay (right y axis, gray). Viral titer and cell viability were normalized to DMSO-treated samples. (D) Splenic titers of DENV2-infected AGB6 mice at 4 days postinfection. Mice were infected with 1 × 10^6 PFU DENV2 and treated twice daily with 20 mg/kg pyrimethamine (n = 9) or a vehicle control (n = 10). Data were analyzed by two-tailed unpaired t test. (E) Cleavage kinetics of NS2B/3/4A in the presence of 100 μM pyrimethamine. NS2B/3/4A protein was expressed in vitro and radiolabeled with [^35S]methionine, followed by treatment with 100 μM pyrimethamine or DMSO. Reaction samples were obtained over a 45-min time course, separated by SDS-PAGE, and the fraction of uncleaved proteinase precursor remaining was determined as described previously ([23]). Data from three replicates were fit using single-phase exponential decay functions, and P value was determined by comparing the rate constant, K, of the models using the extra sum-of-squares F test.
Dengue plaque assays were carried out on BHK-21 cells in 24-well plates. Cells were infected with 10-fold serial dilutions of virus, which were allowed to adsorb for at least 1 h at 37°C, and overlaid with standard cell culture medium plus 0.37% (w/vol) sodium bicarbonate and 0.8% (w/vol) Aquacide II (Millipore Calbiochem). After 7 days of incubation at 37°C, 5% CO2, cells were fixed with 5% (final) formaldehyde and stained with crystal violet for plaque enumeration.
Between 4 × 10^4 and 1 × 10^5 Huh7 cells per well were seeded into 24-well plates 1 day prior to infection. Compounds were diluted to 100× final concentration in DMSO and then further diluted 1:100 into appropriate cell culture. Unless otherwise indicated, tested compounds were present for 1 h pretreatment and readministered for posttreatment following infection. […] Media and drugs were removed from cells for infection at a multiplicity of infection (MOI) of 0.1 or 0.5 in 200 μl cold medium per well. After 1 h at 37°C, virus inoculum was removed by aspiration and replaced with medium plus compound or control. After 24-h total infection, infectious virus was quantified by plaque assay. Antiviral IC50 dose-response curves were fitted in GraphPad Prism 8 using the “[inhibitor] versus response, variable slope” function with a constraint “bottom > 0.” IC90 values are defined as the dose at which “y = (span × 0.1) + bottom.”

dengue virus [2] = experiment: Extracellular and intracellular virus quantification in Huh7 cells; type: cell-based; conditions: IC90 dose (spautin-1 2.4 μM, vandetanib 3.6 μM), Huh7, 24 hpi
Protocol: FIG 5 Vandetanib and spautin-1 inhibit dengue maturation and egress in a VPS34-independent manner. […] Cells were pretreated for 1 h, infected for 1 h at an MOI of 0.5 PFU/cell, and posttreated for an additional 23 h. N = 4, one-way ANOVA with Dunnett’s multiple-comparison test. ns, not significant (P > 0.05); **, P < 0.01; ****, P < 0.0001. (C) Huh7 cells transfected with a luciferase-expressing RNA replicon were treated with 3 μM vandetanib (orange) or 1% DMSO vehicle control (black) for 1 h prior to transfection and up to 52 h posttransfection. Luciferase intensity was quantified as a measure of viral protein abundance. Luciferase intensity was shown as relative light units (RLU). The use of an RNA replicon that is directly transfected into cells reflects only translation and RNA replication steps of viral infection, not viral packaging or cell exit. N = 4, two-way ANOVA with Sikak’s multiple-comparison test. […] (D) VPS34 was not required for spautin-1 or vandetanib anti-dengue activity. Wild-type and VPS34 knockout Huh7 cells were treated with 5 μM spautin-1, 5 μM vandetanib, or DMSO. Cells were pretreated, infected at an MOI of 0.5, and posttreated as described above for panels A and B. At 24 hpi, cellular supernatant was collected and titered by plaque assay. N ≥ 3. One-way ANOVA with Dunnett’s multiple-comparison test; *, P < 0.05; **, P < 0.01; ***, P < 0.001; ****, P < 0.0001.
After 1 h, virus inoculum was aspirated and replaced with medium containing compounds or 1% DMSO. After 24-h total infection, extracellular virus was collected in cellular supernatant and quantified by plaque assay. To collect intracellular virus, cells were washed with PBS, incubated for 3 min at 4°C with high-salt buffer (1 M NaCl, 50 mM sodium bicarbonate [pH 9.5]) to detach cell-associated extracellular virus ([63]), washed twice with PBS, detached with 0.25% trypsin-EDTA, and isolated by centrifugation (500 × g, 5 min, 4°C). Infected cell pellets were resuspended in 750 μl cell culture medium, lysed by repeated freeze/thaw in liquid nitrogen followed by 37°C water bath. Debris was removed by centrifugation (3,200 × g, 5 min, 4°C), and infectious intracellular virus was quantified by BHK-21 plaque assay.

dengue virus [3] = experiment: Antiviral activity in VPS34 knockout Huh7 cells; type: cell-based; conditions: 5 μM compound, MOI 0.5, 24 hpi
Protocol: FIG 5 Vandetanib and spautin-1 inhibit dengue maturation and egress in a VPS34-independent manner. […] Cells were pretreated for 1 h, infected for 1 h at an MOI of 0.5 PFU/cell, and posttreated for an additional 23 h. N = 4, one-way ANOVA with Dunnett’s multiple-comparison test. ns, not significant (P > 0.05); **, P < 0.01; ****, P < 0.0001. (C) Huh7 cells transfected with a luciferase-expressing RNA replicon were treated with 3 μM vandetanib (orange) or 1% DMSO vehicle control (black) for 1 h prior to transfection and up to 52 h posttransfection. Luciferase intensity was quantified as a measure of viral protein abundance. Luciferase intensity was shown as relative light units (RLU). The use of an RNA replicon that is directly transfected into cells reflects only translation and RNA replication steps of viral infection, not viral packaging or cell exit. N = 4, two-way ANOVA with Sikak’s multiple-comparison test. […] (D) VPS34 was not required for spautin-1 or vandetanib anti-dengue activity. Wild-type and VPS34 knockout Huh7 cells were treated with 5 μM spautin-1, 5 μM vandetanib, or DMSO. Cells were pretreated, infected at an MOI of 0.5, and posttreated as described above for panels A and B. At 24 hpi, cellular supernatant was collected and titered by plaque assay. N ≥ 3. One-way ANOVA with Dunnett’s multiple-comparison test; *, P < 0.05; **, P < 0.01; ***, P < 0.001; ****, P < 0.0001. […]

NS2B/3/4A = target: T1, NS2B/3/4A (Dengue virus type 2, UniProt P29990); experiment: In vitro translation-based proteinase cleavage assay of NS2B/3/4A precursor; type: biochemical; conditions: 100 μM pyrimethamine vs DMSO, 45-min time course, translation extracts
T1 construct: NS2B/3/4A protein was expressed in vitro and radiolabeled with [^35S]methionine; made in house; host or cells: rabbit reticulocyte lysate (TNT coupled T7; Promega), cell-free in vitro translation
Protocol: FIG 2 Pyrimethamine inhibits dengue virus and NS2B/3 proteinase cleavage like ARDP0006. (A) Chemical structures and (B) ROCS overlay of ARDP0006 and pyrimethamine. […] Compounds were added 1 h prior to infection, removed, and then readministered after removal of viral inoculum. Infectious virus in cell supernatant was quantified by plaque assay at 24 hpi (left y axis, black or red). Cell viability was measured at the same pyrimethamine doses 24 h posttreatment by WST-1 assay (right y axis, gray). Viral titer and cell viability were normalized to DMSO-treated samples. (D) Splenic titers of DENV2-infected AGB6 mice at 4 days postinfection. Mice were infected with 1 × 10^6 PFU DENV2 and treated twice daily with 20 mg/kg pyrimethamine (n = 9) or a vehicle control (n = 10). Data were analyzed by two-tailed unpaired t test. […] Reaction samples were obtained over a 45-min time course, separated by SDS-PAGE, and the fraction of uncleaved proteinase precursor remaining was determined as described previously ([23]). Data from three replicates were fit using single-phase exponential decay functions, and P value was determined by comparing the rate constant, K, of the models using the extra sum-of-squares F test. […]
Proteinase cleavage assays were performed as previously described ([23]). […] Protein quantification was performed using ImageQuant TL 8.1 software (GE Healthcare Life Sciences).

DENV2 [4] = experiment: DENV2-infected AGB6 mouse model (splenic titer, survival); type: in vivo, AGB6 mice; conditions: for Splenic titer of dengue virus: AGB6 mice, 20 mg/kg pyrimethamine twice daily, oral gavage, 4 days postinfection, 20 mg/kg
dengue virus [5] = experiment: Initial screening of hit compounds for anti-dengue activity in tissue culture cells (Table S1); type: cell-based; conditions: viral titer relative to vehicle, tissue culture cell lines (BHK-21 48 hpi, Fig. S1; Huh7, Fig. 2C, 3C, 4C)
Protocol: For each query molecule, the top 500 compound hits obtained from the ROCS algorithm, as ranked by the Tanimoto combo score (see Data Set S1 in the supplemental material), were manually inspected for similar chemical and structural features. They were further prioritized by factors such as a lack of known side effects, commercial availability, and the intellectual property considerations that would be needed for worldwide, inexpensive use. Fourteen candidates were tested for their effects on dengue virus growth and toxicity in BHK-21 and Huh7 cells (see Table S1 and Fig. S1 in the supplemental material).
Supplementary file : TABLE S1 Summary of hits for lead compounds ARDP0006 and ST-148 screened for anti-dengue activity in tissue culture cells. Hit compounds were tested for anti-dengue activity and cell toxicity in tissue culture cell lines. Antiviral activity is summarized as follows: −, not antiviral, with titer greater than 50% of vehicle; +, weakly antiviral, with titer between 20 and 50% of vehicle; ++, moderately antiviral, with titer between 5 and 20% of vehicle; +++, highly antiviral, with titer less than 5% of vehicle. Toxicity at these doses is represented as follows: −, nontoxic, with cell viability greater than 80% of vehicle; +, mild toxicity, with cell viability between 60 and 80% of vehicle; +++, high toxicity, with cell viability less than 60% of vehicle. Data summarized here are depicted graphically in Fig. S1 and Fig. 2C, 3C, and [4]C. The Tanimoto combo score of each hit during initial ROCS screening is indicated; higher Tanimoto combo scores are indicative of increased chemical similarity. Download Table S1, PDF file, 0.04 MB.
Supplementary file : FIG S1 Initial screening of eliminated hit compounds for anti-dengue activity in tissue culture cells. BHK-21 cells were pretreated with the compounds at the indicated concentrations for 30 min, infected with dengue virus at an MOI of 0.1 PFU/cell for 1 h, and then posttreated with compound. At 48 hpi, cellular supernatant was collected and titered by plaque assay (purple). Cell viability in uninfected cells in the presence of compounds for 48 h was measured by WST assay (gray). Both viral titer and cell viability are normalized to their relative DMSO vehicle control, N = 2. Download FIG S1, PDF file, 0.06 MB.

[6] = ref PubChem database, cited from earlier work; for LD50: single dose
dengue virus [7] = tested on: dengue virus; design: method as in PMID 25823617; conditions: read-out: IC50, inhibition of viral growth in cell culture; cited from earlier work
NS2B/3 proteinase = target: NS2B/3 proteinase; design: method as in PMID 30228122; conditions: read-out: IC50, inhibition of NS2B/3 proteinase cleavage activity in solution; cited from earlier work
[8] = Huh-7, DENV2-infected Huh7 cells, single infectious cycle, plaque assay at 24 hpi, read-out: IC50 of viral inhibition (infectious extracellular virus)

T1 sequence (P29990 1476-2093): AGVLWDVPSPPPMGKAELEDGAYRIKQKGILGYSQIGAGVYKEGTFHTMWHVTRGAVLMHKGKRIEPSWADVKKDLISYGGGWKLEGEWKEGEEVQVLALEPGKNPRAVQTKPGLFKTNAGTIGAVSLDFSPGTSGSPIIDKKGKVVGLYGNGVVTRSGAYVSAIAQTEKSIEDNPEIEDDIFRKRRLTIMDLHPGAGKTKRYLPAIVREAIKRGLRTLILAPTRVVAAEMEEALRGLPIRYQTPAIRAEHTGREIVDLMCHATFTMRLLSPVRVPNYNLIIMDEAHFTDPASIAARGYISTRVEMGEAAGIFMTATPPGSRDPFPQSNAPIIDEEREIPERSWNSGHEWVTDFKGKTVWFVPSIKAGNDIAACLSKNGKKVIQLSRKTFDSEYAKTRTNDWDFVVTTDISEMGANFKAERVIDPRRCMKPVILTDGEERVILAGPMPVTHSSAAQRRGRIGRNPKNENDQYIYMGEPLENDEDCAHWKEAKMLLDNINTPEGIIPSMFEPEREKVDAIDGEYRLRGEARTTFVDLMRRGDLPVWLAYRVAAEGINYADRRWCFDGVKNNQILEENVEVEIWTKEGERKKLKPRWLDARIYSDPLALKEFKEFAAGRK
T1 sequence (P29990 1346-1475): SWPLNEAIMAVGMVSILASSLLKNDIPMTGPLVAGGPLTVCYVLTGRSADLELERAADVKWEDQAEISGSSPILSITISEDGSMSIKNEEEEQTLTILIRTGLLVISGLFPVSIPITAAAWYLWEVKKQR

Row | SMILES | IC90 (DENV2 [1]; Huh-7, DENV2-infected Huh7 cells, from dose-response curve fit, 24 hpi) | pIC50 (DENV2 [1]; [8]) | Extracellular viral titer (dengue virus [2]) | Infectious intracellular virus (dengue virus [2]) | Antiviral activity in VPS34 knockout cells (dengue virus [3]) | Cleavage kinetics of NS2B/3/4A precursor (NS2B/3/4A) | Cleavage kinetics of NS2B/3/4A precursor (NS2B/3/4A; listed as pyrimethamine) | Splenic titer of dengue virus (DENV2 [4]) | Splenic titer of dengue virus (DENV2 [4]; listed as pyrimethamine) | Mortality on sustained treatment (survival experiments) (DENV2 [4]; infected AGB6 mice, sustained pyrimethamine treatment) | Antiviral (dengue virus [5]) | LD50 ([6]; IP) | LD50 ([6]; Oral) | Acute toxicity in words (Table S2) ([6]; healthy mice) | pIC50 (DENV2 [1]; DENV2, Huh-7, read-out: IC50 of viral inhibition (infectious extracellular virus)) | pIC50 (dengue virus [7]) | pIC50 (NS2B/3 proteinase)
1 | Fc1ccc(CNc2ncnc3ccc(F)cc23)cc1 [spautin-1] | 2400 nM | 5.96 | significantly reduced; also recorded: reduced extracellular virus | unchanged; also recorded: abundant intracellular virus | retained significant antiviral activity; also recorded: retained their ability to limit dengue virus egress | – | – | – | – | – | – | – | – | – | – | – | –
2 | CCc1nc(N)nc(N)c1-c1ccc(Cl)cc1 [Pyrimethamine, pyrimethamine] | – | 5.92 | – | – | – | inhibited intramolecular NS2B/3 cleavage | significantly slowed dengue virus NS2B/3 cleavage; also recorded: slowing proteinase cleavage in translation extracts | significantly reduced viral splenic burden | reduced viral loads; also recorded: significant reduction in splenic titer | caused marked mortality | +++ (highly antiviral, with titer less than 5% of vehicle) | 74 mg/kg | 92 mg/kg | well tolerated | – | – | –
3 | O=C1c2c(O)ccc([N+](=O)[O-])c2C(=O)c2c([N+](=O)[O-])ccc(O)c21 [ARDP0006] | – | – | – | – | – | – | – | – | – | – | – | – | – | – | 6.23 | 5.57 | 3.21
